Results published in ChEMBL document CHEMBL5244269, “Improving metabolic stability and removing aldehyde oxidase liability in a 5-azaquinazoline series of IRAK4 inhibitors” (Bioorg Med Chem, 2020).

Key:
Type in all cases: functional
SUD4 [1] = test: Growth inhibition of human SU-DHL-4 cells at 1.7 uM incubated for 3 days in presence of 0.033 uM acalabrutinib relative to control; conditions: SU-DHL-4, 72 h, time 3 day, read-out: GI
SUD4 [2] = test: Growth inhibition of human SU-DHL-4 cells at 1.7 uM incubated for 3 days in presence of 0.017 uM acalabrutinib relative to control; conditions: SU-DHL-4, 72 h, time 3 day, read-out: GI
SUD4 [3] = test: Growth inhibition of human SU-DHL-4 cells at 1.7 uM incubated for 3 days in presence of 0.003 uM acalabrutinib relative to control; conditions: SU-DHL-4, 72 h, time 3 day, read-out: GI
SUD4 [4] = test: Growth inhibition of human SU-DHL-4 cells at 0.33 uM incubated for 3 days in presence of 0.17 uM acalabrutinib relative to control; conditions: SU-DHL-4, 72 h, time 3 day, read-out: GI
SUD4 [5] = test: Growth inhibition of human SU-DHL-4 cells at 0.33 uM incubated for 3 days in presence of 0.033 uM acalabrutinib relative to control; conditions: SU-DHL-4, 72 h, time 3 day, read-out: GI
SUD4 [6] = test: Growth inhibition of human SU-DHL-4 cells at 0.33 uM incubated for 3 days in presence of 0.017 uM acalabrutinib relative to control; conditions: SU-DHL-4, 72 h, time 3 day, read-out: GI
SUD4 [7] = test: Growth inhibition of human SU-DHL-4 cells at 0.17 uM incubated for 3 days in presence of 0.33 uM acalabrutinib relative to control; conditions: SU-DHL-4, 72 h, time 3 day, read-out: GI
SUD4 [8] = test: Growth inhibition of human SU-DHL-4 cells at 0.33 uM incubated for 3 days in presence of 0.003 uM acalabrutinib relative to control; conditions: SU-DHL-4, 72 h, time 3 day, read-out: GI
SUD4 [9] = test: Growth inhibition of human SU-DHL-4 cells at 0.17 uM incubated for 3 days in presence of 0.17 uM acalabrutinib relative to control; conditions: SU-DHL-4, 72 h, time 3 day, read-out: GI
SUD4 [10] = test: Growth inhibition of human SU-DHL-4 cells at 0.17 uM incubated for 3 days in presence of 0.033 uM acalabrutinib relative to control; conditions: SU-DHL-4, 72 h, time 3 day, read-out: GI
SUD4 [11] = test: Growth inhibition of human SU-DHL-4 cells at 0.17 uM incubated for 3 days in presence of 0.017 uM acalabrutinib relative to control; conditions: SU-DHL-4, 72 h, time 3 day, read-out: GI
SUD4 [12] = test: Growth inhibition of human SU-DHL-4 cells at 0.17 uM incubated for 3 days in presence of 0.003 uM acalabrutinib relative to control; conditions: SU-DHL-4, 72 h, time 3 day, read-out: GI
OCI-Ly10 [13] = test: Growth inhibition of human OCILY10 cells at 0.17 uM incubated for 3 days in presence of 0.003 uM acalabrutinib relative to control; conditions: OCI-Ly10, 72 h, time 3 day, read-out: GI
OCI-Ly10 [14] = test: Growth inhibition of human OCILY10 cells at 0.17 uM incubated for 3 days in presence of 0.033 uM acalabrutinib relative to control; conditions: OCI-Ly10, 72 h, time 3 day, read-out: GI
OCI-Ly10 [15] = test: Growth inhibition of human OCILY10 cells at 0.17 uM incubated for 3 days in presence of 0.17 uM acalabrutinib relative to control; conditions: OCI-Ly10, 72 h, time 3 day, read-out: GI
OCI-Ly10 [16] = test: Growth inhibition of human OCILY10 cells at 0.17 uM incubated for 3 days in presence of 0.33 uM acalabrutinib relative to control; conditions: OCI-Ly10, 72 h, time 3 day, read-out: GI
OCI-Ly10 [17] = test: Growth inhibition of human OCILY10 cells at 0.33 uM incubated for 3 days in presence of 0.003 uM acalabrutinib relative to control; conditions: OCI-Ly10, 72 h, time 3 day, read-out: GI
OCI-Ly10 [18] = test: Growth inhibition of human OCILY10 cells at 0.33 uM incubated for 3 days in presence of 0.017 uM acalabrutinib relative to control; conditions: OCI-Ly10, 72 h, time 3 day, read-out: GI
OCI-Ly10 [19] = test: Growth inhibition of human OCILY10 cells at 0.33 uM incubated for 3 days in presence of 0.033 uM acalabrutinib relative to control; conditions: OCI-Ly10, 72 h, time 3 day, read-out: GI
OCI-Ly10 [20] = test: Growth inhibition of human OCILY10 cells at 0.33 uM incubated for 3 days in presence of 0.33 uM acalabrutinib relative to control; conditions: OCI-Ly10, 72 h, time 3 day, read-out: GI
OCI-Ly10 [21] = test: Growth inhibition of human OCILY10 cells at 1.7 uM incubated for 3 days in presence of 0.003 uM acalabrutinib relative to control; conditions: OCI-Ly10, 72 h, time 3 day, read-out: GI
OCI-Ly10 [22] = test: Growth inhibition of human OCILY10 cells at 1.7 uM incubated for 3 days in presence of 0.017 uM acalabrutinib relative to control; conditions: OCI-Ly10, 72 h, time 3 day, read-out: GI
OCI-Ly10 [23] = test: Growth inhibition of human OCILY10 cells at 1.7 uM incubated for 3 days in presence of 0.033 uM acalabrutinib relative to control; conditions: OCI-Ly10, 72 h, time 3 day, read-out: GI
OCI-Ly10 [24] = test: Growth inhibition of human OCILY10 cells at 1.7 uM incubated for 3 days in presence of 0.17 uM acalabrutinib relative to control; conditions: OCI-Ly10, 72 h, time 3 day, read-out: GI
OCI-Ly10 [25] = test: Growth inhibition of human OCILY10 cells at 3.3 uM incubated for 3 days in presence of 0.003 uM acalabrutinib relative to control; conditions: OCI-Ly10, 72 h, time 3 day, read-out: GI
OCI-Ly10 [26] = test: Growth inhibition of human OCILY10 cells at 3.3 uM incubated for 3 days in presence of 0.017 uM acalabrutinib relative to control; conditions: OCI-Ly10, 72 h, time 3 day, read-out: GI
OCI-Ly10 [27] = test: Growth inhibition of human OCILY10 cells at 3.3 uM incubated for 3 days in presence of 0.17 uM acalabrutinib relative to control; conditions: OCI-Ly10, 72 h, time 3 day, read-out: GI
OCI-Ly10 [28] = test: Growth inhibition of human OCILY10 cells at 3.3 uM incubated for 3 days in presence of 0.33 uM acalabrutinib relative to control; conditions: OCI-Ly10, 72 h, time 3 day, read-out: GI
OCI-Ly10 [29] = test: Growth inhibition of human OCILY10 cells at 10 uM incubated for 3 days in presence of 0.003 uM acalabrutinib relative to control; conditions: OCI-Ly10, 72 h, time 3 day, read-out: GI
OCI-Ly10 [30] = test: Growth inhibition of human OCILY10 cells at 10 uM incubated for 3 days in presence of 0.017 uM acalabrutinib relative to control; conditions: OCI-Ly10, 72 h, time 3 day, read-out: GI
OCI-Ly10 [31] = test: Growth inhibition of human OCILY10 cells at 10 uM incubated for 3 days in presence of 0.033 uM acalabrutinib relative to control; conditions: OCI-Ly10, 72 h, time 3 day, read-out: GI
OCI-Ly10 [32] = test: Growth inhibition of human OCILY10 cells at 10 uM incubated for 3 days in presence of 0.17 uM acalabrutinib relative to control; conditions: OCI-Ly10, 72 h, time 3 day, read-out: GI
OCI-Ly10 [33] = test: Growth inhibition of human OCILY10 cells at 10 uM incubated for 3 days in presence of 0.33 uM acalabrutinib relative to control; conditions: OCI-Ly10, 72 h, time 3 day, read-out: GI
SUD4 [34] = test: Growth inhibition of human SU-DHL-4 cells at 1.7 uM incubated for 3 days in presence of 0.17 uM acalabrutinib relative to control; conditions: SU-DHL-4, 72 h, time 3 day, read-out: GI
SUD4 [35] = test: Growth inhibition of human SU-DHL-4 cells at 1.7 uM incubated for 3 days in presence of 0.33 uM acalabrutinib relative to control; conditions: SU-DHL-4, 72 h, time 3 day, read-out: GI
SUD4 [36] = test: Growth inhibition of human SU-DHL-4 cells at 3.3 uM incubated for 3 days in presence of 0.003 uM acalabrutinib relative to control; conditions: SU-DHL-4, 72 h, time 3 day, read-out: GI
SUD4 [37] = test: Growth inhibition of human SU-DHL-4 cells at 3.3 uM incubated for 3 days in presence of 0.017 uM acalabrutinib relative to control; conditions: SU-DHL-4, 72 h, time 3 day, read-out: GI
SUD4 [38] = test: Growth inhibition of human SU-DHL-4 cells at 3.3 uM incubated for 3 days in presence of 0.033 uM acalabrutinib relative to control; conditions: SU-DHL-4, 72 h, time 3 day, read-out: GI
SUD4 [39] = test: Growth inhibition of human SU-DHL-4 cells at 3.3 uM incubated for 3 days in presence of 0.17 uM acalabrutinib relative to control; conditions: SU-DHL-4, 72 h, time 3 day, read-out: GI
SUD4 [40] = test: Growth inhibition of human SU-DHL-4 cells at 10 uM incubated for 3 days in presence of 0.017 uM acalabrutinib relative to control; conditions: SU-DHL-4, 72 h, time 3 day, read-out: GI
SUD4 [41] = test: Growth inhibition of human SU-DHL-4 cells at 10 uM incubated for 3 days in presence of 0.033 uM acalabrutinib relative to control; conditions: SU-DHL-4, 72 h, time 3 day, read-out: GI

SMILES: Cc1ncc(-c2nc3c(NC(C)C)nc(Nc4cnn(C5CC6(C5)CN(C)C6)c4)nc3cc2F)cn1
- inhibition of growth at 1.7 µM (SUD4 [1]): 3%
- inhibition of growth at 1.7 µM (SUD4 [2]): 3%
- inhibition of growth at 1.7 µM (SUD4 [3]): 3%
- inhibition of growth at 0.33 µM (SUD4 [4]): 4%
- inhibition of growth at 0.33 µM (SUD4 [5]): 3%
- inhibition of growth at 0.33 µM (SUD4 [6]): 3%
- inhibition of growth at 0.17 µM (SUD4 [7]): 6%
- inhibition of growth at 0.33 µM (SUD4 [8]): 3%
- inhibition of growth at 0.17 µM (SUD4 [9]): 3%
- inhibition of growth at 0.17 µM (SUD4 [10]): 2%
- inhibition of growth at 0.17 µM (SUD4 [11]): 3%
- inhibition of growth at 0.17 µM (SUD4 [12]): 3%
- inhibition of growth at 0.17 µM (OCI-Ly10 [13]): 29%
- inhibition of growth at 0.17 µM (OCI-Ly10 [14]): 137%
- inhibition of growth at 0.17 µM (OCI-Ly10 [15]): 172%
- inhibition of growth at 0.17 µM (OCI-Ly10 [16]): 173%
- inhibition of growth at 0.33 µM (OCI-Ly10 [17]): 51%
- inhibition of growth at 0.33 µM (OCI-Ly10 [18]): 158%
- inhibition of growth at 0.33 µM (OCI-Ly10 [19]): 177%
- inhibition of growth at 0.33 µM (OCI-Ly10 [20]): 183%
- inhibition of growth at 1.7 µM (OCI-Ly10 [21]): 170%
- inhibition of growth at 1.7 µM (OCI-Ly10 [22]): 196%
- inhibition of growth at 1.7 µM (OCI-Ly10 [23]): 196%
- inhibition of growth at 1.7 µM (OCI-Ly10 [24]): 197%
- inhibition of growth at 3.3 µM (OCI-Ly10 [25]): 189%
- inhibition of growth at 3.3 µM (OCI-Ly10 [26]): 196%
- inhibition of growth at 3.3 µM (OCI-Ly10 [27]): 196%
- inhibition of growth at 3.3 µM (OCI-Ly10 [28]): 195%
- inhibition of growth at 10 µM (OCI-Ly10 [29]): 196%
- inhibition of growth at 10 µM (OCI-Ly10 [30]): 197%
- inhibition of growth at 10 µM (OCI-Ly10 [31]): 198%
- inhibition of growth at 10 µM (OCI-Ly10 [32]): 199%
- inhibition of growth at 10 µM (OCI-Ly10 [33]): 198%
- inhibition of growth at 1.7 µM (SUD4 [34]): 3%
- inhibition of growth at 1.7 µM (SUD4 [35]): 6%
- inhibition of growth at 3.3 µM (SUD4 [36]): 4%
- inhibition of growth at 3.3 µM (SUD4 [37]): 4%
- inhibition of growth at 3.3 µM (SUD4 [38]): 4%
- inhibition of growth at 3.3 µM (SUD4 [39]): 4%
- inhibition of growth at 10 µM (SUD4 [40]): 7%
- inhibition of growth at 10 µM (SUD4 [41]): 6%
